Reference: EP3770254A1, “LIQUID P[…] TRANSGLUTAMINASE” (AJINOMOTO CO., INC., priority 2018, dated 2019)
Structures can show the parent of a compound that is named as a salt.

The molecules below were run against T1, transglutaminase (Streptomyces mobaraensis, UniProt P81453) (assay: Experimental Example 1: accelerated test by high temperature storage, transglutaminase activity by hydroxamate method). Conditions: conclusion of Experimental Example 1; additive 10 wt%, 44°C 24 hr.
T1 sequence (P81453 77-407): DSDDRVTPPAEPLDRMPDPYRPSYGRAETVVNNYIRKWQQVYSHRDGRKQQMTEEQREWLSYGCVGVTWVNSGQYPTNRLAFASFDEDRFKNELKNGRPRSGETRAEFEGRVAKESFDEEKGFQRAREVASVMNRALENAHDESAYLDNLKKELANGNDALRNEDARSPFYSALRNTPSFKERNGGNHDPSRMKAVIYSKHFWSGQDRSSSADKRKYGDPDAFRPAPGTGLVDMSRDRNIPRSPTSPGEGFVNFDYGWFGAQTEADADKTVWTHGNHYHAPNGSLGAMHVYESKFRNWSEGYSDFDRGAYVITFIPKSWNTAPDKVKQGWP
Type: physicochemical, microorganism
Method: The enzyme activity of transglutaminase can be measured and calculated by, for example, the hydroxamate method. That is, benzyloxycarbonyl-L-glutaminyl glycine is reacted with hydroxylamine as a substrate to form an iron complex of hydroxamic acid formed in the aforementioned reaction in the presence of trichloroacetic acid, the absorbance at 525 nm is measured, and the amount of hydroxamic acid produced is determined from the calibration curve, whereby the enzyme activity can be calculated.
The stability of transglutaminase in each liquid preparation of the above-mentioned Examples 1 - 5 and Comparative Example 1 was evaluated by an accelerated test by high temperature storage as follows.
Respective liquid preparations of the above-mentioned Examples 1 - 5 and Comparative Example 1 were stored at 4°C and 44°C for 24 hr, and the transglutaminase activity in the liquid preparation was measured by the above-mentioned hydroxamate method.
A liquid preparation obtained by dissolving only transglutaminase in a phosphate buffer was used as a control and treated in the same manner.
For `NCC(=O)O` [glycine, 2-aminoacetic acid], the “transglutaminase stabilizing effect in a liquid preparation” value (shortened to “transglutaminase stabilizing effect”) was “has a transglutaminase stabilizing effect”. In the case of `Cl.NCCCC[C@H](N)C(=O)O` [lysine hydrochloride, reference compound], the “transglutaminase stabilizing effect” value is reported as “not found”. In the case of `O=C(O)C1CCCN1` (stereo not drawn) [proline, pyrrolidine-2-carboxylic acid], the “transglutaminase stabilizing effect” value is reported as “has a transglutaminase stabilizing effect”. `NC(CO)C(=O)O` (stereo not drawn) [serine, 2-amino-3-hydroxypropionic acid] was tested, and the “transglutaminase stabilizing effect” value was “has a transglutaminase stabilizing effect”. `N[C@@H](CC(=O)[O-])C(=O)[O-].[Na+].[Na+]` [sodium aspartate] was tested, and the “transglutaminase stabilizing effect” value was “has a transglutaminase stabilizing effect”. With `N[C@@H](CCC(=O)[O-])C(=O)[O-].[Na+].[Na+]` [sodium glutamate] the “transglutaminase stabilizing effect” value was “has a transglutaminase stabilizing effect”.

The molecules below were run against T1, transglutaminase (assay: not given). Conditions: conclusion of Experimental Example 4; organic acid salt 10 wt%, 44°C 24 hr.
`CC(=O)O` [sodium acetate] was tested, and the stabilization of transglutaminase was “can also stabilize transglutaminase”. In the case of `O=C(O)CC(O)(CC(=O)O)C(=O)O` [sodium citrate], the stabilization of transglutaminase is reported as “can also stabilize transglutaminase”. With `O=C([O-])[C@H](O)[C@@H](O)[C@H](O)[C@H](O)CO.[Na+]` [sodium gluconate] the stabilization of transglutaminase was “can also stabilize transglutaminase”.
